Legend:
[1] = Piglet average daily gain (ADG) from processing to weaning; format: in vivo, swine; details: piglets; for Average Daily Gain (ADG) Mean Difference: least squares means
Protocol: On day 21 post-drug injection in the sow, the body weight of each sow and piglet was recorded before weaning to calculate average daily weight gain.
Plasma cortisol concentrations and ADG were analyzed using a nonlinear mixed-effects analysis incorporating both fixed effects and random effects (PROC GLMMIX; SAS university edition v9.04.01, SAS Institute, Cary, N.C.). The population cortisol concentrations best fit a lognormal model. Time, treatment and their interaction were designated as fixed effects in the model with piglet nested in sow designated as a random effect. The effect of gender across treatments was examined using ANOVA to confirm that data from female piglets could be pooled to serve as a procedural control. Sow parity was also included as a covariate in the model. Where there was evidence of a treatment-by-time interaction (P<0.1), simple effect comparisons of LS means were conducted using the Tukey-Kramer adjustment for multiple comparisons. ADG outcomes best fit a Gaussian distribution. The effect of gender across treatments was also examined by ANOVA to clarify the effect of drug exposure from the effect of processing. For both outcomes, statistical significance was set a priori at P<0.05.
Eight piglets died between processing and weaning. Average daily gain in body weight (ADG) of the surviving piglets over the 21 d from processing to weaning was calculated by subtracting the body weight at processing from the body weight at weaning and dividing the result by the days from processing to weaning (FIG. 12 and FIG. 13). […] Specifically, ADG increased with the increasing doses of firocoxib administered to the lactating sows via injection.

[2] = Necropsy and histopathology examination of nursing piglets at 21 d; format: in vivo, swine; details: for Kidney: Mild tubular ectasia (number of piglets) / Kidney: Moderate ectasia (number of piglets) / Kidney: Prominent ectasia (number of piglets) / Kidney: Rare tubular ectasia (number of piglets) / Kidney: Within normal limits (number of piglets) / Liver: Within normal limits (number of piglets) / Small Intestine: Within normal limits (number of piglets) / Stomach: Mild gastritis (number of piglets) / Stomach: Mild vasculitis, muscle layer (number of piglets) / Stomach: Within normal limits (number of piglets): nursing piglets, 21 d
Protocol: Thereafter, sows and piglets in all groups were humanely euthanized and examined for macroscopic signs of NSAID toxicity. Necropsies were performed on all animals to inspect for macroscopic signs of NSAID toxicity. Samples of kidney, liver, small intestine and stomach were sectioned into 0.5-1 cm slices and placed in plastic jars containing 10% buffered formalin in a 10:1 formalin:tissue ratio for histopathology examination.
Formalin-fixed sections of kidney, liver, small intestine and stomach from sows and 3 piglets/litter were trimmed and positioned in cassettes loaded into an automated tissue processor (Sakura VIP 5, Sakura Finetek, Torrance, Calif.) for overnight paraffin infiltration. Processed tissues in cassettes were then placed in a paraffin bath (Sakura Tissue-Tek TEC 5, Sakura Finetek, Torrance, Calif.) after which they were removed from the cassette and oriented in molds. […] Tissue sections were cut at 4 microns from the cooled blocks. Paraffin ribbons with tissue were then laid out on a water bath and the floating tissue sections were collected onto microscope slides. The unstained tissue sections were then mounted on the slide and dried at 60° C. for 20 minutes. Finally, the tissue was deparaffinized and rehydrated for staining by transfer through xylene and a series of decreasing concentrations of alcohol to hematoxylin on an automated stainer (Sakura Tissue-Tek Prisma, Sakura Finetek, Torrance, Calif.). After a tap water rinse, the tissue on the slide was counterstained with eosin, dehydrated in an alcohol series, cleared in xylene and cover slipped (Sakura Tissue-Tek Glas g2) prior to histological examination by a veterinary diagnostician with experience in the histological examination of swine tissues.

CC1(C)OC(=O)C(OCC2CC2)=C1c1ccc(S(C)(=O)=O)cc1 [firocoxib]
average daily gain, dose dependence ([1]; 21 d after processing, sow doses 0.5-2.0 mg/kg IM): dose-dependent increase in average daily gain | Average Daily Gain (ADG) Mean Difference ([1]; sow dose 0.5 mg/kg vs 1.0 mg/kg): 2.56 g | Average Daily Gain (ADG) Mean Difference ([1]; sow dose 0.5 mg/kg vs 1.5 mg/kg): -17.98 g | Average Daily Gain (ADG) Mean Difference ([1]; sow dose 0.5 mg/kg vs 2.0 mg/kg): -39.01 g | Average Daily Gain (ADG) Mean Difference ([1]; sow dose 1.0 mg/kg vs 1.5 mg/kg): -20.54 g | Average Daily Gain (ADG) Mean Difference ([1]; sow dose 1.0 mg/kg vs 2.0 mg/kg): -41.57 g | Average Daily Gain (ADG) Mean Difference ([1]; sow dose 1.5 mg/kg vs 2.0 mg/kg): -21.03 g | weight gain (ADG) over 21 d from processing to weaning ([1]; sow dose 2.0 mg/kg vs 0.5 mg/kg (P=0.0076) or 1.0 mg/kg (P=0.0047)): gained more weight | Kidney: Mild tubular ectasia (number of piglets) ([2]; sow dose 0.5 mg/kg IM): 5 | Kidney: Moderate ectasia (number of piglets) ([2]; sow dose 0.5 mg/kg IM): 0 | Kidney: Prominent ectasia (number of piglets) ([2]; sow dose 0.5 mg/kg IM): 5 | Kidney: Rare tubular ectasia (number of piglets) ([2]; sow dose 0.5 mg/kg IM): 1 | Kidney: Within normal limits (number of piglets) ([2]; sow dose 0.5 mg/kg IM): 1 | Liver: Within normal limits (number of piglets) ([2]; sow dose 0.5 mg/kg IM): 12 | Small Intestine: Within normal limits (number of piglets) ([2]; sow dose 0.5 mg/kg IM): 12 | Stomach: Mild gastritis (number of piglets) ([2]; sow dose 0.5 mg/kg IM): 5 | Stomach: Mild vasculitis, muscle layer (number of piglets) ([2]; sow dose 0.5 mg/kg IM): 2 | Stomach: Within normal limits (number of piglets) ([2]; sow dose 0.5 mg/kg IM): 5 | Kidney: Mild tubular ectasia (number of piglets) ([2]; sow dose 1.0 mg/kg IM): 9 | Kidney: Moderate ectasia (number of piglets) ([2]; sow dose 1.0 mg/kg IM): 0 | Kidney: Prominent ectasia (number of piglets) ([2]; sow dose 1.0 mg/kg IM): 0 | Kidney: Rare tubular ectasia (number of piglets) ([2]; sow dose 1.0 mg/kg IM): 1 | Kidney: Within normal limits (number of piglets) ([2]; sow dose 1.0 mg/kg IM): 2 | Liver: Within normal limits (number of piglets) ([2]; sow dose 1.0 mg/kg IM): 12 | Small Intestine: Within normal limits (number of piglets) ([2]; sow dose 1.0 mg/kg IM): 12 | Stomach: Mild gastritis (number of piglets) ([2]; sow dose 1.0 mg/kg IM): 6 | Stomach: Mild vasculitis, muscle layer (number of piglets) ([2]; sow dose 1.0 mg/kg IM): 2 | Stomach: Within normal limits (number of piglets) ([2]; sow dose 1.0 mg/kg IM): 4 | Kidney: Mild tubular ectasia (number of piglets) ([2]; sow dose 1.5 mg/kg IM): 9 | Kidney: Moderate ectasia (number of piglets) ([2]; sow dose 1.5 mg/kg IM): 0 | Kidney: Prominent ectasia (number of piglets) ([2]; sow dose 1.5 mg/kg IM): 3 | Kidney: Rare tubular ectasia (number of piglets) ([2]; sow dose 1.5 mg/kg IM): 0 | Kidney: Within normal limits (number of piglets) ([2]; sow dose 1.5 mg/kg IM): 0 | Liver: Within normal limits (number of piglets) ([2]; sow dose 1.5 mg/kg IM): 12 | Small Intestine: Within normal limits (number of piglets) ([2]; sow dose 1.5 mg/kg IM): 12 | Stomach: Mild gastritis (number of piglets) ([2]; sow dose 1.5 mg/kg IM): 6 | Stomach: Mild vasculitis, muscle layer (number of piglets) ([2]; sow dose 1.5 mg/kg IM): 3 | Stomach: Within normal limits (number of piglets) ([2]; sow dose 1.5 mg/kg IM): 3 | Kidney: Mild tubular ectasia (number of piglets) ([2]; sow dose 2.0 mg/kg IM): 5 | Kidney: Moderate ectasia (number of piglets) ([2]; sow dose 2.0 mg/kg IM): 1 | Kidney: Prominent ectasia (number of piglets) ([2]; sow dose 2.0 mg/kg IM): 3 | Kidney: Rare tubular ectasia (number of piglets) ([2]; sow dose 2.0 mg/kg IM): 0 | Kidney: Within normal limits (number of piglets) ([2]; sow dose 2.0 mg/kg IM): 3 | Liver: Within normal limits (number of piglets) ([2]; sow dose 2.0 mg/kg IM): 12 | Small Intestine: Within normal limits (number of piglets) ([2]; sow dose 2.0 mg/kg IM): 12 | Stomach: Mild gastritis (number of piglets) ([2]; sow dose 2.0 mg/kg IM): 2 | Stomach: Mild vasculitis, muscle layer (number of piglets) ([2]; sow dose 2.0 mg/kg IM): 1 | Stomach: Within normal limits (number of piglets) ([2]; sow dose 2.0 mg/kg IM): 9 | kidneys with ectatic tubules (number) ([2]; piglets, all treatment groups): 10 | sections of stomach lining with mild gastritis (number) ([2]; piglets, all treatment groups): 19

— patent US10434083B2, “Transmammary delivery of cyclooxygenase-2 inhibitors for analgesia in neonates” (Iowa State University Research Foundation, Inc., priority 2018, dated 2019)
